Row | melting point [°C] | Structure (SMILES)
1 | 120 to 121 | CCOC(=O)CCCCOc1ccc(C(CC)(CC)NC(=O)c2cnn3c2NC(c2ccccc2)CC3(C)C)cc1 (centres unmarked) [Example 817, ethyl 5-(4-(1-(((7,7-dimethyl-5-phenyl-4,5,6,7-tetrahydropyrazolo[1,5-a]pyrimidin-3-yl)carbonyl)amino)-1-ethyl-propyl)phenoxy)pentanoate]
2 | 133 to 134 | CCCCOC(=O)CCCOc1ccc(C(CC)(CC)NC(=O)c2cnn3c2NC(c2ccccc2)CC3(C)C)cc1 (centres unmarked) [Example 818, butyl 4-(4-(1-(((7,7-dimethyl-5-phenyl-4,5,6,7-tetrahydropyrazolo[1,5-a]pyrimidin-3-yl)carbonyl)amino)-1-ethyl-propyl)phenoxy)butanoate]
3 | 177 to 178 | CCC(CC)(NC(=O)c1cnn2c1NC(c1ccccc1)CC2(C)C)c1ccc(SC)cc1 (centres unmarked) [Example 832, N-(1-ethyl-1-(4-(methylthio)phenyl)propyl)-7,7-dimethyl-5-phenyl-4,5,6,7-tetrahydropyrazolo[1,5-a]pyrimidine-3-carboxamide]
4 | 149 to 150 | CCC(CC)(NC(=O)c1c(C)nn2c1NC(c1ccccc1)CC2(C)C)c1ccc(SC)cc1 (centres unmarked) [Example 833, N-(1-ethyl-1-(4-(methylthio)phenyl)propyl)-2,7,7-trimethyl-5-phenyl-4,5,6,7-tetrahydropyrazolo[1,5-a]pyrimidine-3-carboxamide]
5 | 167 to 168 | CC1(C)CC(c2ccccc2Cl)Nc2c(C(=O)O)cnn21 (centres unmarked) [Example 940, 5-(2-chlorophenyl)-7,7-dimethyl-4,5,6,7-tetrahydropyrazolo[1,5-a]pyrimidine-3-carboxylic acid]
6 | 196 to 197 | COc1ccc(C2CC(C)(C)n3ncc(C(=O)O)c3N2)cc1 (centres unmarked) [Example 942, 5-(4-methoxyphenyl)-7,7-dimethyl-4,5,6,7-tetrahydropyrazolo[1,5-a]pyrimidine-3-carboxylic acid]
7 | 198 to 199 | COc1ccccc1C1CC(C)(C)n2nc(C)c(C(=O)O)c2N1 (centres unmarked) [Example 944, 5-(2-methoxyphenyl)-2,7,7-trimethyl-4,5,6,7-tetrahydropyrazolo[1,5-a]pyrimidine-3-carboxylic acid]
8 | 153 to 155 | Cc1nn2c(c1C(=O)O)NC(c1cccc(F)c1)CC2(C)C (centres unmarked) [Example 945, 5-(3-fluorophenyl)-2,7,7-trimethyl-4,5,6,7-tetrahydropyrazolo[1,5-a]pyrimidine-3-carboxylic acid]
9 | 146 to 148 | Cc1cccc(C2CC(C)(C)n3nc(C)c(C(=O)O)c3N2)c1 (centres unmarked) [Example 946, 2,7,7-trimethyl-5-(3-methylphenyl)-4,5,6,7-tetrahydropyrazolo[1,5-a]pyrimidine-3-carboxylic acid]
10 | 151 to 152 | COc1cccc(C2CC(C)(C)n3nc(C)c(C(=O)O)c3N2)c1 (centres unmarked) [Example 947, 5-(3-methoxyphenyl)-2,7,7-trimethyl-4,5,6,7-tetrahydropyrazolo[1,5-a]pyrimidine-3-carboxylic acid]
11 | 173 to 174 | Cc1nn2c(c1C(=O)O)NC(c1ccc(F)cc1)CC2(C)C (centres unmarked) [Example 948, 5-(4-fluorophenyl)-2,7,7-trimethyl-4,5,6,7-tetrahydropyrazolo[1,5-a]pyrimidine-3-carboxylic acid]
12 | 181 to 182 | Cc1ccc(C2CC(C)(C)n3nc(C)c(C(=O)O)c3N2)cc1 (centres unmarked) [Example 949, 2,7,7-trimethyl-5-(4-methylphenyl)-4,5,6,7-tetrahydropyrazolo[1,5-a]pyrimidine-3-carboxylic acid]
13 | 178 to 179 | COc1ccc(C2CC(C)(C)n3nc(C)c(C(=O)O)c3N2)cc1 (centres unmarked) [Example 950, 5-(4-methoxyphenyl)-2,7,7-trimethyl-4,5,6,7-tetrahydropyrazolo[1,5-a]pyrimidine-3-carboxylic acid]
14 | 186 to 187 | Cc1nn2c(c1C(=O)O)NC(c1cccs1)CC2(C)C (centres unmarked) [Example 951, 2,7,7-trimethyl-5-(2-thienyl)-4,5,6,7-tetrahydropyrazolo[1,5-a]pyrimidine-3-carboxylic acid]
15 | 155 to 157 | Cc1ccc(C2CC(C)(C)n3ncc(C(=O)O)c3N2)c(C)c1 (centres unmarked) [Example 952, 5-(2,4-dimethylphenyl)-7,7-dimethyl-4,5,6,7-tetrahydropyrazolo[1,5-a]pyrimidine-3-carboxylic acid]
16 | 137 to 139 | CC1(C)CC(c2ccccc2)Nc2c(C(=O)O)c(OCCO)nn21 (centres unmarked) [Example 953, 2-(2-hydroxyethoxy)-7,7-dimethyl-5-phenyl-4,5,6,7-tetrahydropyrazolo[1,5-a]pyrimidine-3-carboxylic acid]

Row | melting point [°C] | Structure (SMILES)
17 | 152 to 153 | CCOC(=O)c1ccc(C(CC)(CC)NC(=O)c2c(C)nn3c2NC(c2ccccc2)CC3(C)C)cc1 (centres unmarked) [Example 954, ethyl 4-(1-ethyl-1-(((2,7,7-trimethyl-5-phenyl-4,5,6,7-tetrahydropyrazolo[1,5-a]pyrimidin-3-yl)carbonyl)amino)propyl) benzoate]
18 | 146 to 147 | CCC(CC)(NC(=O)c1c(C)nn2c1NC(c1ccccc1)CC2(C)C)c1ccc(CO)cc1 (centres unmarked) [Example 955, N-(1-ethyl-1-(4-(hydroxy-methyl)phenyl)propyl)-2,7,7-trimethyl-5-phenyl-4,5,6,7-tetrahydropyrazolo[1,5-a]pyrimidine-3-carboxamide]
19 | 139 to 140 | CCC(CC)(NC(=O)c1c(C)nn2c1NC(c1ccccc1F)CC2(C)C)c1ccc(C)cc1 (centres unmarked) [Example 962, N-[1-ethyl-1-(4-methylphenyl)propyl]-5-(2-fluorophenyl)-2,7,7-trimethyl-4,5,6,7-tetrahydropyrazolo[1,5-a]pyrimidine-3-carboxamide]
20 | 115 to 117 | CCC(CC)(NC(=O)c1c(OCCO)nn2c1NC(c1ccccc1)CC2(C)C)c1ccc(C)cc1 (centres unmarked) [Example 975, N-(1-ethyl-1-(4-methylphenyl)propyl)-2-(2-hydroxyethoxy)-7,7-dimethyl-5-phenyl-4,5,6,7-tetrahydropyrazolo[1,5-a]pyrimidine-3-carboxamide]
21 | 200 to 202 | CCC(CC)(NC(=O)c1c(C)nn2c1NC(c1ccccc1)CC2(C)C)c1ccc(C(C)=O)cc1 (centres unmarked) [Example 977, N-(1-(4-acetylphenyl)-1-ethylpropyl)-2,7,7-trimethyl-5-phenyl-4,5,6,7-tetrahydropyrazolo[1,5-a]pyrimidine-3-carboxamide]
22 | 165 to 166 | CCC(CC)(NC(=O)c1c(C)nn2c1NC(c1ccccc1)CC2(C)C)c1ccc(C(C)O)cc1 (centres unmarked) [Example 978, N-(1-ethyl-1-(4-(1-hydroxyethyl)phenyl)propyl)-2,7,7-trimethyl-5-phenyl-4,5,6,7-tetrahydropyrazolo[1,5-a]pyrimidine-3-carboxamide]
23 | 244 to 246 | CCC(CC)(NC(=O)c1c(C)nn2c1NC(c1ccccc1)CC2(C)C)c1ccc(C(=O)O)cc1 (centres unmarked) [Example 979, 4-(1-ethyl-1-(((2,7,7-trimethyl-5-phenyl-4,5,6,7-tetrahydropyrazolo[1,5-a]pyrimidin-3-yl)carbonyl)amino)propyl) benzoic acid]
24 | 226 to 227 | CC1(C)C[C@@H](c2ccccc2)Nc2c(C(=O)NC34CC5CC(CC(C5)C3)C4)cnn21 [Example 1029, (5S)-N-1-adamantyl-7,7-dimethyl-5-phenyl-4,5,6,7-tetrahydropyrazolo[1,5-a]pyrimidine-3-carboxamide]
25 | 226 to 227 | CC1(C)C[C@H](c2ccccc2)Nc2c(C(=O)NC34CC5CC(CC(C5)C3)C4)cnn21 [Example 1030, (5R)-N-1-adamantyl-7,7-dimethyl-5-phenyl-4,5,6,7-tetrahydropyrazolo[1,5-a]pyrimidine-3-carboxamide]
26 | 131 to 132 | CCC(CC)(NC(=O)c1c(C)nn2c1N[C@H](c1ccccc1)CC2(C)C)c1ccc(Cl)cc1 [Example 1041, (5S)-N-(1-(4-chlorophenyl)-1-ethylpropyl)-2,7,7-trimethyl-5-phenyl-4,5,6,7-tetrahydropyrazolo[1,5-a]pyrimidine-3-carboxamide]
27 | 128 to 129 | CCC(CC)(NC(=O)c1c(C)nn2c1N[C@@H](c1ccccc1)CC2(C)C)c1ccc(Cl)cc1 [Example 1042, (5R)-N-(1-(4-chlorophenyl)-1-ethylpropyl)-2,7,7-trimethyl-5-phenyl-4,5,6,7-tetrahydropyrazolo[1,5-a]pyrimidine-3-carboxamide]
28 | 160 to 161 | CCC(CC)(NC(=O)c1c(C)nn2c1N[C@@H](c1ccccc1)CC2(C)C)c1ccc(O)cc1 [Example 1064, (5R)-N-(1-ethyl-1-(4-hydroxyphenyl)propyl)-2,7,7-trimethyl-5-phenyl-4,5,6,7-tetrahydropyrazolo[1,5-a]pyrimidine-3-carboxamide]
29 | 151 to 152 | CCC(CC)(NC(=O)c1cnn2c1N[C@@H](c1ccccc1)CC2(C)C)c1ccc(SC)cc1 [Example 1067, (5R)-N-(1-ethyl-1-(4-(methylthio)phenyl)propyl)-7,7-dimethyl-5-phenyl-4,5,6,7-tetrahydropyrazolo[1,5-a]pyrimidine-3-carboxamide]
30 | 234 to 236 | CCC(CC)(NC(=O)c1c(C)nn2c1N[C@@H](c1ccccc1)CC2(C)C)c1ccc(C(=O)O)cc1 [Example 1076, (5R)-4-(1-ethyl-1-(((-2,7,7-trimethyl-5-phenyl-4,5,6,7-tetrahydropyrazolo[1,5-a]pyrimidin-3-yl)carbonyl)amino)propyl) benzoic acid]
31 | 162 to 164 | CCC1(CC)C[C@@H](O)CN1C(=O)c1c(C)nn2c1N[C@@H](c1ccccc1)CC2(C)C [Example 1097, (3R)-5,5-diethyl-1-(((5R)-2,7,7-trimethyl-5-phenyl-4,5,6,7-tetrahydropyrazolo[1,5-a]pyrimidin-3-yl)carbonyl)-3-pyrrolidinol]
32 | 132 to 134 | CCC1(CC)C[C@@H](OC)CN1C(=O)c1c(C)nn2c1N[C@@H](c1ccccc1)CC2(C)C [Example 1099, (5R)-3-(((4R)-2,2-diethyl-4-methoxy-1-pyrralidinyl)carbanyl)-2,7,7-trimethyl-5-phenyl-4,5,6,7-tetrahydropyrazolo[1,5-a]pyrimidine]

From US9447100B2, “Substituted pyrazolo[1,5-A] pyrimidines as calcium receptor modulating agents” (Takeda Pharmaceutical Company Limited, priority 2002, dated 2016)
